Measured values reported in patent US7589121B2, “Use of furan alkyls for preparing a drug for treating obesity and cosmetically treating overweight” (priority 2004, dated 2009).

What was measured:
CYP7A1 = experiment: Analysis of mRNAs in the liver (Q-RT-PCR): CYP7A1; format: in vivo, mice; conditions: TZD
Experimental: (§1) In the liver, the mRNA expressions of 8 genes were determined in 5 mice of each group using real-time Q-RT-PCR analysis.

[1] = system: PGC-1 (mitochondria biogenesis); experiment: Analysis of mRNAs in the muscles and BAT: PGC-1; format: in vivo, mice; conditions: TZD
Experimental: In the brown adipose tissue (BAT) and in the muscles, the mRNA expression of 3 genes was determined in 5 mice of each group by real-time Q-RTR-PCR analysis.

[2] = system: ME, FAS, ACC (fatty acid synthesis); experiment: Analysis of mRNAs in the liver (Q-RT-PCR): ME, FAS, ACC; format: in vivo, mice; conditions: TZD
Experimental: as §1

ACO (target PPARα) = experiment: Analysis of mRNAs in the liver (Q-RT-PCR): ACO; format: in vivo, mice; conditions: TZD
Experimental: as §1

[3] = system: GSH-S-transferase (target PXR); experiment: Analysis of mRNAs in the liver (Q-RT-PCR): GSH-S-transferase; format: in vivo, mice; conditions: TZD
Experimental: as §1

[4] = system: mice fattened on a high fat/high sucrose diet (HF/HS); experiment: Weight gain / weight of mice on HF/HS diet; format: in vivo; conditions: curative group; TZD added to HF/HS food
Experimental: We used adult mice (aged 6 weeks) of masculine gender fattened on a high fat/high sucrose diet (HF/HS). Feeding with the HF/HS diet began on mice aged 6 weeks and continued throughout the period of the study. The study was conducted along 2 axes: • prevention: the product was administered as soon as feeding began with the HF/HS diet; • management (curative): the product was administered 12 weeks after the start of the HF/HS diet. Total treatment time (preventive and curative): 23 weeks.
Each experimental group comprised 10 mice.

PEPCK (target PPARγ) = experiment: Analysis of mRNAs in the liver (Q-RT-PCR): PEPCK; format: in vivo, mice; conditions: TZD
Experimental: as §1

Question: What does the source list for CN(CCOc1ccc(CC2SC(=O)NC2=O)cc1)c1ccccn1 (stereo not shown) [TZD, Rosiglitazone]?
Answer: CYP7A1 (conversion oxysterol into biliary acids) mRNA, liver (CYP7A1): ⇑⇑; PGC-1 (mitochondria biogenesis) mRNA, MUSCLE/BAT [1]: ⇑ (muscle); ME, FAS, ACC (fatty acid synthesis) mRNA, liver [2]: ⇑⇑; ACO (target PPARα) mRNA, liver (ACO (target PPARα)): ⇑; GSH-S-transferase (target PXR) mRNA, liver [3]: ⇑; weight loss of overweight mice [4]: did not cause the overweight mice to lose weight; PEPCK (target PPARγ) mRNA, liver (PEPCK (target PPARγ)): ⇑
